# From PubChem BioAssay AID1259407 (Chemical Carcinogenesis Research Information System (CCRIS), 2018)
# The source made the active and inactive calls. The rule behind the calls is not given here.
# Test system: CCRIS mutagenicity, Ames/micronucleus/aberration tests
# Assay: CCRIS mutagenicity studies
# [1] = Test System: AMES SALMONELLA TYPHIMURIUM, Strain/Indicator: TA98, Metabolic Activation: NONE, Method: STANDARD PLATE
# [2] = Test System: AMES SALMONELLA TYPHIMURIUM, Strain/Indicator: TA100, Metabolic Activation: NONE, Method: STANDARD PLATE
smiles,measurement,setting,value
O=C1c2ccccc2C(=O)c2c(O)cc(O)cc21,mutagenic call,"Test System: AMES SALMONELLA TYPHIMURIUM, Strain/Indicator: TA98, Metabolic Activation: NONE, Method: PREINCUBATION",inactive; negative
same,mutagenic call,"Test System: AMES SALMONELLA TYPHIMURIUM, Strain/Indicator: TA98, Metabolic Activation: RAT, LIVER, S-9, PCB, Method: PREINCUBATION",active; positive
same,mutagenic call,"Test System: AMES SALMONELLA TYPHIMURIUM, Strain/Indicator: TA100, Metabolic Activation: NONE, Method: PREINCUBATION",inactive; negative
same,mutagenic call,"Test System: AMES SALMONELLA TYPHIMURIUM, Strain/Indicator: TA100, Metabolic Activation: RAT, LIVER, S-9, PCB, Method: PREINCUBATION",active; positive
same,mutagenic call,"Test System: AMES SALMONELLA TYPHIMURIUM, Strain/Indicator: TA1537, Metabolic Activation: NONE, Method: PREINCUBATION",active; positive
same,mutagenic call,"Test System: AMES SALMONELLA TYPHIMURIUM, Strain/Indicator: TA1537, Metabolic Activation: RAT, LIVER, S-9, Method: PREINCUBATION",active; positive
same,mutagenic call,"Test System: CHINESE HAMSTER V-79, Strain/Indicator: V-79/8-AZAGUANINE, Metabolic Activation: NONE, Method: STANDARD PLATE",active; positive
same,mutagenic call,"Test System: CHINESE HAMSTER V-79, Strain/Indicator: V-79/8-AZAGUANINE, Metabolic Activation: PRIMARY RAT HEPATOCYTES, Method: STANDARD PLATE",active; positive
same,mutagenic call,"Test System: UDS RODENT HEPATOCYTES, Strain/Indicator: THY INCORP (NON-S-PHASE), Metabolic Activation: NONE, Method: AUTORADIOGRAPHY",active; positive
Cc1ccccc1NS(=O)(=O)c1cccc2cccnc12,mutagenic call,[1],inactive; negative
same,mutagenic call,"Test System: AMES SALMONELLA TYPHIMURIUM, Strain/Indicator: TA98, Metabolic Activation: RAT, LIVER, S-9, AROCLOR 1254, Method: STANDARD PLATE",inactive; negative
same,mutagenic call,[2],inactive; negative
same,mutagenic call,"Test System: AMES SALMONELLA TYPHIMURIUM, Strain/Indicator: TA100, Metabolic Activation: RAT, LIVER, S-9, AROCLOR 1254, Method: STANDARD PLATE",inactive; negative
same,mutagenic call,"Test System: AMES SALMONELLA TYPHIMURIUM, Strain/Indicator: TA1535, Metabolic Activation: NONE, Method: STANDARD PLATE",inactive; negative
same,mutagenic call,"Test System: AMES SALMONELLA TYPHIMURIUM, Strain/Indicator: TA1535, Metabolic Activation: RAT, LIVER, S-9, AROCLOR 1254, Method: STANDARD PLATE",inactive; negative
same,mutagenic call,"Test System: AMES SALMONELLA TYPHIMURIUM, Strain/Indicator: TA1537, Metabolic Activation: NONE, Method: STANDARD PLATE",inactive; negative
same,mutagenic call,"Test System: AMES SALMONELLA TYPHIMURIUM, Strain/Indicator: TA1537, Metabolic Activation: RAT, LIVER, S-9, AROCLOR 1254, Method: STANDARD PLATE",inactive; negative
COc1cccc(/C=C/c2ccc(N)cc2)c1,mutagenic call,"Test System: AMES SALMONELLA TYPHIMURIUM, Strain/Indicator: TA98(1,8-DNP6), Metabolic Activation: NONE, Method: STANDARD PLATE",inactive; negative
same,mutagenic call,"Test System: AMES SALMONELLA TYPHIMURIUM, Strain/Indicator: TA98(1,8-DNP6), Metabolic Activation: S-9, Method: STANDARD PLATE",active; positive
same,mutagenic call,[1],active; positive
same,mutagenic call,"Test System: AMES SALMONELLA TYPHIMURIUM, Strain/Indicator: TA98, Metabolic Activation: S-9, Method: STANDARD PLATE",active; positive
same,mutagenic call,[2],inactive; negative
same,mutagenic call,"Test System: AMES SALMONELLA TYPHIMURIUM, Strain/Indicator: TA100, Metabolic Activation: S-9, Method: STANDARD PLATE",active; positive
O=Nc1ccc2ccc3c4ccccc4cc4ccc1c2c43,mutagenic call,"Test System: AMES SALMONELLA TYPHIMURIUM, Strain/Indicator: TA98 (1,8-DNP6), Metabolic Activation: NONE, Method: STANDARD PLATE",active; positive
same,mutagenic call,"Test System: AMES SALMONELLA TYPHIMURIUM, Strain/Indicator: TA98 (NR), Metabolic Activation: NONE, Method: STANDARD PLATE",active; positive
same,mutagenic call,[1],active; positive
same,mutagenic call,"Test System: CHINESE HAMSTER OVARY, Strain/Indicator: CHO-K1-BH4 (HGPRT), Metabolic Activation: NONE",active; positive
OCc1c2ccccc2c(CO)c2c1ccc1ccccc12,mutagenic call,"Test System: AMES SALMONELLA TYPHIMURIUM, Strain/Indicator: TA98, Metabolic Activation: RAT, LIVER, S-9, NADPH GENERATING SYSTEM, Method: PREINCUBATION",inactive; negative
same,mutagenic call,"Test System: AMES SALMONELLA TYPHIMURIUM, Strain/Indicator: TA98, Metabolic Activation: RAT, LIVER, S-105, PAPS GENERATING SYSTEM, Method: PREINCUBATION",active; positive
